Here are results for two compounds from patent US20240294478A1, “ANTI-CANCER COMPOUNDS AND METHODS OF USE” (YALE UNIVERSITY, priority 2021, published 2024).

One assay relates to LN229 MGMT+/MMR+ cells. Put plainly: Short-term cell viability assay, LN229 MGMT+/MMR+. Type of assay: cell-based. Conditions: Homo sapiens, read-out: IC50 against LN229 cell lines, MGMT+ MMR+. As for the experimental part: (§1) LN229 MGMT- and MGMT+ cell lines were a gift from B. Kaina (Johannes Gutenberg University Mainz, Mainz, Germany) and grown in Gibco® Duilbecco's Modified Eagle Medium with 10% fetal bovine serum (DMEM). For each compound tested, the relationship between MGMT status and MMR status and compound activity, in terms of IC50 values ([…]), was determined by the following method. On day 1, LN229 isogenic cells of varying MGMT and MMR status were seeded in 96 well format at a density of 2000 cells/well in 100 μL of DMEM media and allowed to adhere overnight. On day 2, a drug master plate was made with 100×the desired maximal concentration of test compound and serially diluted by 2 until 100×the minimal desired concentration, with one DMSO control. Then daughter plates were created with varied concentrations from 3-times the minimal concentration to 3-times the maximal desired concentration. Afterwards, 50 μL of daughter drug plate was added to 100 μL of the seeded cells for a final concentration of 1×in triplicate. Cells were allowed to grow for 6 days. On day 7, the cells were fixed, and stained with Hoechst nuclear dye and imaged to determine growth inhibition.
(§2) For each compound tested, the relationship between MGMT status and MMR status and compound activity, in terms of IC50 values (in μM), was determined. In addition, for each compound, the therapeutic index (TI) was calculated, according to the equation MGMT TI=IC50 (MGMT+/MMR+) divided by IC50 (MGMT−/MMR+). The T1 indicates the efficacy of a compound in treating the targeted MGMT-cancer cells as compared to potential for the same compound to damage, or have adverse effects against, normal cells which are MGMT+cells, The higher the value of the TI, the safer the compound is. […] MMR RI (resistance index)=IC50 (MGMT−/MMR−) divided by IC50 (MGMT−/MMR+). The higher the value of the RI, the less likely that resistance to the compound will develop.
(§3) Short-term Cell Viability Assay. Cells were seeded in 96-well plates at 1000 or 2000 cells/well and allowed to adhere at 23° C. for 60 min and then incubated overnight at 37° C. Cells were treated with indicated concentrations of compounds in triplicate for 4-6 days prior to fixation with 3.7% paraformaldehyde and nuclear staining with 1 μg/mL Hoechst 33342 dye. Cells were imaged on a Cytation 3 imaging reader (BioTek) and quantified using CellProfiler software. For in vitro short-term growth delay experiments, IC50 values were determined from the nonlinear regression equation, [inhibitor] vs normalized response with variable slope.

Assay [1] relates to LN229 MGMT+/−, MMR+/− cells. The experiment in a line: Cell cycle analysis. It counts as cell-based, human. To be noted: 20 μM. As for the experimental part: FIGS. 6A-6E: Selected cell cycle analysis upon drug treatment. FIG. 6A: Percentage of cells in G1, S, and G2 cell cycle phases after treatment, as in FIGS. 5A-5C, measured using integrated nuclear (Hoechst) staining intensity. Columns, mean; error bars, SD; n=3 independent analyses.
Cell Cycle Analysis. Cell cycle analysis was performed using integrated Hoechst nucleic acid dye fluorescence intensity. Briefly, integrated Hoechst fluorescence intensity was log 2 transformed and histograms from DMSO-treated cells were used to identify the centers of the 2N and 4N DNA peaks. These values were used to normalize the 2N DNA peak to 1 and the 4N DNA peak to 2. Cells were then classified by normalized log 2 DNA content as G1 (0.75-1.25), S (1.25-1.75), or G2 (1.75-2.5) phase cells. The percentage of cells within each phase of the cell cycle was determined for each treatment condition. The three sets of Hoechst-stained cells corresponding to the three separate DNA foci stains were treated as three independent analyses.

The test system of the next assay is LN229 MGMT+/MMR− cells. Put plainly: Short-term cell viability assay, LN229 MGMT+/MMR- (shRNA targeting MSH2). Type of assay: cell-based. Conditions: Homo sapiens. As for the experimental part:
as §1, §2, §3

Setting [2] is: LN-229, Table II, read-out: IC50 against LN229 cell lines, MGMT MMR−.

Like-named read-outs stand apart in the source and are kept apart here.

For the compound `Cn1nnc2c(C(N)=O)ncn2c1=O` [TMZ, 4-methyl-5-oxo-2,3,4,6,8-pentazabicyclo[4.3.0]nona-2,7,9-triene-9-carboxamide, reference compound], the IC50 – broadly, the concentration needed to halve the response being measured – with LN229 MGMT+/MMR+ cells (LN-229, 144 h, Table 1, 6 days growth, Hoechst nuclear count) was above 100 µM; in the assay on LN229 MGMT+/MMR+ cells (LN-229, Table III, shRNA None) it was 697 ± 60 µM; in the assay on LN229 MGMT+/MMR+ cells (LN-229, Table II), 742 ± 468 µM; in the assay on LN229 MGMT+/MMR− cells (LN-229, 144 h, Table 1, 6 days growth, read-out: IC50 against LN229 cell lines, MGMT+ MMR−), above 100 µM; in the assay on LN229 MGMT+/MMR− cells (setting [2]), 1000 ± 107 µM. In assay [1], the “G2 arrest in MGMT+/MMR+ cells” value is “moderate G2 arrest”. Further, the “G2 arrest in MGMT−/MMR− cells” value in assay [1] is given as “absent”.
On to `NC(=O)c1ncn2c(=O)n(CCF)nnc12` [KL-50], for which the IC50 is 285 ± 46 µM in the assay on LN229 MGMT+/MMR+ cells (LN-229, Table III, shRNA None); 587 ± 166 µM with LN229 MGMT+/MMR+ cells (LN-229, Table II); 504 ± 55 µM in the assay on LN229 MGMT+/MMR− cells (setting [2]). The “G2 arrest in MGMT+/MMR+ cells” value in assay [1] was “moderate G2 arrest”. The “G2 arrest in MGMT−/MMR− cells” value in assay [1] is listed as “attenuated G2 arrest”. The “G2 arrest in MGMT−/MMR+ cells” value in assay [1] (24 to 48 h) is “increasing G2 arrest”.
